Values after ≈ are worked out from the molar mass of the structure shown.
What was measured:
Type in all cases: cell-based
[1] = tested on: Acinetobacter baumannii/haemolyticus AB-3167; assay: minimum inhibitory concentration (MIC) testing according to CLSI guidelines, Acinetobacter; settings: multidrug-resistant clinical isolate AB-3167, overnight incubation, lower of duplicate values; for MIC: Acinetobacter baumannii, read-out: AB-MBT: Acinetobacter baumanii AB-3167: MIC (MstRcnt)
Method in brief: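 Broth dilution MIC per CLSI M7-A8/M100-S20 against multidrug-resistant clinical isolate AB-3167, using 2-fold drug dilutions and overnight incubation; MIC is the lowest concentration without visible growth. Duplicates within 2-fold reported as the lower value, with control strains and reference compounds in range.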

[2] = tested on: Klebsiella pneumoniae 1000-02; assay: minimum inhibitory concentration (MIC) testing according to CLSI guidelines, Klebsiella pneumoniae; settings: ciprofloxacin-resistant, ESBL-expressing clinical isolate 1000-02, overnight incubation, lower of duplicate values; for MIC: Klebsiella pneumoniae, read-out: AB-MBT: Klebsiella pneumoniae 1000-02: MIC (MstRcnt)
Method in brief: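 MIC by CLSI broth dilution with 2-fold concentration steps and overnight incubation; lowest concentration visibly inhibiting growth versus drug-free control. Ciprofloxacin-resistant, ESBL-expressing clinical isolate 1000-02. Run in duplicate, lower value reported when within 2-fold, with QC organisms and reference compounds per run.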

[3] = tested on: Pseudomonas aeruginosa UC-12120; assay: minimum inhibitory concentration (MIC) testing according to CLSI guidelines, Pseudomonas aeruginosa; settings: UC-12120, wild-type, labeled as 1091-05, overnight incubation, lower of duplicate values; for MIC: Pseudomonas aeruginosa, UC12120, read-out: AB-MBT: Pseudomonas aeruginosa 1091-05: MIC (MstRcn)
Method in brief: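 Broth dilution MIC per CLSI guidelines against wild-type P. aeruginosa UC-12120 (1091-05), using 2-fold drug dilutions and overnight incubation with visual reading of lowest growth-inhibiting concentration. Tested in duplicate; lower value reported when within 2-fold, with control organisms and reference compounds for quality control.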

Structure (SMILES)	MIC [2] [µg/mL]	MIC [3] [µg/mL]	MIC [1] [µg/mL]	AB-MBT: Acinetobacter baumanii AB-3167: MIC (MstRcnt) [1] [µg/mL]	AB-MBT: Klebsiella pneumoniae 1000-02: MIC (MstRcnt) [2] [µg/mL]	AB-MBT: Pseudomonas aeruginosa 1091-05: MIC (MstRcn) [3] [µg/mL]
CC(C)(O/N=C(\C(=O)N[C@@H]1C(=O)N(S(=O)(=O)O)[C@@H]1CNC(=O)NCc1cc(=O)c(O)cn1O)c1nsc(N)n1)C(=O)O [Example 33, 2-({[(1Z)-1-(5-amino-1,2,4-thiadiazol-3-yl)-2-({(2R,3S)-2-[({[(1,5-dihydroxy-4-oxo-1,4-dihydropyridin-2-yl)methyl]carbamoyl}amino)methyl]-4-oxo-1-sulfoazetidin-3-yl}amino)-2-oxoethylidene]amino}oxy)-2-methylpropanoic acid]	2 (≈ 3.16 µM)	0.25 (≈ 0.395 µM)	0.5 (≈ 0.789 µM)			
CC(C)(O/N=C(\C(=O)N[C@@H]1C(=O)N(S(=O)(=O)O)[C@@H]1CNS(=O)(=O)NCc1cc(=O)c(O)cn1O)c1csc(N)n1)C(=O)O [Example 37, 2-({[(1Z)-1-(2-amino-1,3-thiazol-4-yl)-2-{[(2R,3S)-2-{[({[(1,5-dihydroxy-4-oxo-1,4-dihydropyridin-2-yl)methyl]amino}sulfonyl)amino]methyl}-4-oxo-1-sulfoazetidin-3-yl]amino}-2-oxoethylidene]amino}oxy)-2-methylpropanoic acid]	4 (≈ 5.98 µM)	1 (≈ 1.5 µM)	2 (≈ 2.99 µM)			
CC(C)(O/N=C(\C(=O)N[C@@H]1C(=O)N(S(=O)(=O)O)[C@@H]1CNC(=O)OCc1cc(-c2cc(=O)c(O)cn2O)no1)c1csc(N)n1)C(=O)O [Example 38, 2-(5-{[({[(2R,3S)-3-{[(2Z)-2-(2-amino-1,3-thiazol-4-yl)-2-{[(2-carboxypropan-2-yl)oxy]imino}acetyl]amino}-4-oxo-1-sulfoazetidin-2-yl]methyl}carbamoyl)oxy]methyl}isoxazol-3-yl)-1,5-dihydroxy-4-oxo-1,4-dihydropyridinium]				0.5	0.5	2.0
CC(C)(O/N=C(\C(=O)N[C@@H]1C(=O)N(S(=O)(=O)O)[C@@H]1CNC(=O)c1ccc(S(=O)(=O)NCc2cc(=O)c(O)cn2O)cc1)c1csc(N)n1)C(=O)O [Example 39]				0.500	1.00	0.250
CC(C)(O/N=C(\C(=O)N[C@@H]1C(=O)N(S(=O)(=O)O)[C@@H]1CNC(=O)Cc1ccc(NC(=O)c2cc(=O)c(O)cn2O)cc1)c1csc(N)n1)C(=O)O [Example 45, 2-({[(1Z)-1-(2-amino-1,3-thiazol-4-yl)-2-{[(2R,3S)-2-({[(4-{[(1,5-dihydroxy-4-oxo-1,4-dihydropyridin-2-yl)carbonyl]amino}phenyl)acetyl]amino}methyl)-4-oxo-1-sulfoazetidin-3-yl]amino}-2-oxoethylidene]amino}oxy)-2-methylpropanoic acid]	4 (≈ 5.43 µM)	0.5 (≈ 0.679 µM)	0.5 (≈ 0.679 µM)			
CC(C)(O/N=C(\C(=O)N[C@@H]1C(=O)N(S(=O)(=O)O)[C@@H]1CNc1ccc(C(=O)NCc2cc(=O)c(O)cn2O)cn1)c1csc(N)n1)C(=O)O [Example 46, 2-({[(1Z)-1-(2-amino-1,3-thiazol-4-yl)-2-{[(2R,3S)-2-{[(5-{[(1,5-dihydroxy-4-oxo-1,4-dihydropyridin-2-yl)methyl]carbamoyl}pyridin-2-yl)amino]methyl}-4-oxo-1-sulfoazetidin-3-yl]amino}-2-oxoethylidene]amino}oxy)-2-methylpropanoic acid]	2 (≈ 2.82 µM)	0.25 (≈ 0.352 µM)	0.5 (≈ 0.705 µM)			

Second part, led by results:

MIC [2] [µg/mL]	MIC [3] [µg/mL]	Structure (SMILES)	MIC [1] [µg/mL]	AB-MBT: Acinetobacter baumanii AB-3167: MIC (MstRcnt) [1] [µg/mL]	AB-MBT: Klebsiella pneumoniae 1000-02: MIC (MstRcnt) [2] [µg/mL]	AB-MBT: Pseudomonas aeruginosa 1091-05: MIC (MstRcn) [3] [µg/mL]
0.5 (≈ 0.766 µM)	0.125 (≈ 0.191 µM)	C[C@H](O/N=C(\C(=O)N[C@@H]1C(=O)N(S(=O)(=O)O)[C@@H]1CNC(=O)NCc1cc(=O)c(O)cn1O)c1nc(N)sc1Cl)C(=O)O [Example 34, (2S)-2-({[(1Z)-1-(2-amino-5-chloro-1,3-thiazol-4-yl)-2-({(2R,3S)-2-[({[(1,5-dihydroxy-4-oxo-1,4-dihydropyridin-2-yl)methyl]carbamoyl}amino)methyl]-4-oxo-1-sulfoazetidin-3-yl}amino)-2-oxoethylidene]amino}oxy)propanoic acid]	0.25 (≈ 0.383 µM)			
0.25 (≈ 0.416 µM)	4 (≈ 6.65 µM)	Cn1cc(O)c(=O)cc1C(=O)NC[C@@H]1[C@H](NC(=O)/C(=N\OC(C)(C)C(=O)O)c2csc(N)n2)C(=O)N1S(=O)(=O)O [Example 35, 2-({[(1Z)-1-(2-amino-1,3-thiazol-4-yl)-2-{[(2R,3S)-2-({[(5-hydroxy-1-methyl-4-oxo-1,4-dihydropyridin-2-yl)carbonyl]amino}methyl)-4-oxo-1-sulfoazetidin-3-yl]amino}-2-oxoethylidene]amino}oxy)-2-methylpropanoic acid]	0.5 (≈ 0.831 µM)			
1 (≈ 1.51 µM)	0.125 (≈ 0.189 µM)	CC(C)(O/N=C(\C(=O)N[C@@H]1C(=O)N(S(=O)(=O)O)[C@@H]1CNC(=O)CNC(=O)c1cc(=O)c(O)cn1O)c1csc(N)n1)C(=O)O [Example 36, 2-({[(1Z)-1-(2-amino-1,3-thiazol-4-yl)-2-({(2R,3S)-2-[({N-[(1,5-dihydroxy-4-oxo-1,4-dihydropyridin-2-yl)carbonyl]glycyl}amino)methyl]-4-oxo-1-sulfoazetidin-3-yl}amino)-2-oxoethylidene]amino}oxy)-2-methylpropanoic acid]	0.25 (≈ 0.378 µM)			
0.5 (≈ 0.647 µM)	0.25 (≈ 0.324 µM)	CC(C)(O/N=C(\C(=O)N[C@@H]1C(=O)N(S(=O)(=O)O)[C@@H]1CNC(=O)c1cccc(S(=O)(=O)NCc2cc(=O)c(O)cn2O)c1)c1csc(N)n1)C(=O)O [Example 40, 2-({[(1Z)-1-(2-amino-1,3-thiazol-4-yl)-2-{[(2R,3S)-2-({[3-({[(1,5-dihydroxy-4-oxo-1,4-dihydropyridin-2-yl)methyl]amino}sulfonyl)benzoyl]amino}methyl)-4-oxo-1-sulfoazetidin-3-yl]amino}-2-oxoethylidene]amino}oxy)-2-methylpropanoic acid]	0.25 (≈ 0.324 µM)			
0.5 (≈ 0.758 µM)	0.06 (≈ 0.091 µM)	CC(C)(O/N=C(\C(=O)N[C@@H]1C(=O)N(S(=O)(=O)O)[C@@H]1CNC(=O)C(=O)NCC1=CC(=O)C(O)=CC1O)c1csc(N)n1)C(=O)O (stereo partly drawn) [Example 41, 2-({[(1Z)-1-(2-amino-1,3-thiazol-4-yl)-2-{[(2R,3S)-2-({[{[(4,6-dihydroxy-3-oxocyclohexa-1,4-dien-1-yl)methyl]amino}(oxo)acetyl]amino}methyl)-4-oxo-1-sulfoazetidin-3-yl]amino}-2-oxoethylidene]amino}oxy)-2-methylpropanoic acid]	0.25 (≈ 0.379 µM)			
0.5 (≈ 0.726 µM)	0.125 (≈ 0.182 µM)	CC(C)(O/N=C(\C(=O)N[C@@H]1C(=O)N(S(=O)(=O)O)[C@@H]1CNC(=O)CCC(=O)NCc1cc(=O)c(O)cn1O)c1csc(N)n1)C(=O)O [Example 42, 2-({[(1Z)-1-(2-amino-1,3-thiazol-4-yl)-2-{[(2R,3S)-2-{[(4-{[(1,5-dihydroxy-4-oxo-1,4-dihydropyridin-2-yl)methyl]amino}-4-oxobutanoyl)amino]methyl}-4-oxo-1-sulfoazetidin-3-yl]amino}-2-oxoethylidene]amino}oxy)-2-methylpropanoic acid]	0.125 (≈ 0.182 µM)			
0.5 (≈ 0.679 µM)	0.125 (≈ 0.17 µM)	CC(C)(O/N=C(\C(=O)N[C@@H]1C(=O)N(S(=O)(=O)O)[C@@H]1CNC(=O)c1ccc(C(=O)NCc2cc(=O)c(O)cn2O)cc1)c1csc(N)n1)C(=O)O [Example 43, 2-({[(1Z)-1-(2-amino-1,3-thiazol-4-yl)-2-{[(2R,3S)-2-{[(4-{[(1,5-dihydroxy-4-oxo-1,4-dihydropyridin-2-yl)methyl]carbamoyl}benzoyl)amino]methyl}-4-oxo-1-sulfoazetidin-3-yl]amino}-2-oxoethylidene]amino}oxy)-2-methylpropanoic acid]	0.25 (≈ 0.339 µM)			
0.25 (≈ 0.339 µM)	0.25 (≈ 0.339 µM)	CC(C)(O/N=C(\C(=O)N[C@@H]1C(=O)N(S(=O)(=O)O)[C@@H]1CNC(=O)c1cccc(C(=O)NCc2cc(=O)c(O)cn2O)c1)c1csc(N)n1)C(=O)O [Example 44, 2-({[(1Z)-1-(2-amino-1,3-thiazol-4-yl)-2-{[(2R,3S)-2-{[(3-{[(1,5-dihydroxy-4-oxo-1,4-dihydropyridin-2-yl)methyl]carbamoyl}benzoyl)amino]methyl}-4-oxo-1-sulfoazetidin-3-yl]amino}-2-oxoethylidene]amino}oxy)-2-methylpropanoic acid]	0.25 (≈ 0.339 µM)			
0.25 (≈ 0.357 µM)	0.125 (≈ 0.179 µM)	CC(C)(O/N=C(\C(=O)N[C@@H]1C(=O)N(S(=O)(=O)O)[C@@H]1CNC(=O)NCc1cc(-c2cc(=O)c(O)cn2O)no1)c1csc(N)n1)C(=O)O [Example 47, 2-({[(1Z)-1-(2-amino-1,3-thiazol-4-yl)-2-{[(2R,3S)-2-{[({[3-(1,5-dihydroxy-4-oxo-1,4-dihydropyridin-2-yl)isoxazol-5-yl]methyl}carbamoyl)amino]methyl}-4-oxo-1-sulfoazetidin-3-yl]amino}-2-oxoethylidene]amino}oxy)-2-methylpropanoic acid]	0.25 (≈ 0.357 µM)			

From US20130252935A1, “Monobactams” (PFIZER INC., priority 2010, published 2013)
